What was measured:
Format in all cases: functional
Bacillus subtilis [1] = experiment: Antibacterial activity against penicillin-susceptible Bacillus subtilis ATCC 9372 assessed as inhibition of bacterial growth measured after 20 hrs by two-fold microdilution assay
Bacillus pumilus [2] = experiment: Antibacterial activity against penicillin-susceptible Bacillus pumilus CMCC63202 assessed as inhibition of bacterial growth measured after 20 hrs by two-fold microdilution assay
Staphylococcus aureus [3] = experiment: Antibacterial activity against erythromycin-susceptible Staphylococcus aureus ATCC 25923 assessed as inhibition of bacterial growth measured after 20 hrs by two-fold microdilution assay
Streptococcus pyogenes [4] = experiment: Antibacterial activity against erythromycin-susceptible Streptococcus pyogenes assessed as inhibition of bacterial growth measured after 20 hrs by two-fold microdilution assay
Escherichia coli = experiment: Antibacterial activity against penicillin-susceptible Escherichia coli ATCC 25922 assessed as inhibition of bacterial growth measured after 20 hrs by two-fold microdilution assay
Pseudomonas aeruginosa = experiment: Antibacterial activity against penicillin-susceptible Pseudomonas aeruginosa ATCC 27853 assessed as inhibition of bacterial growth measured after 20 hrs by two-fold microdilution assay
Staphylococcus aureus [5] = experiment: Antibacterial activity against methicillin-resistant Staphylococcus aureus ATCC43300 assessed as inhibition of bacterial growth measured after 20 hrs by two-fold microdilution assay
Staphylococcus aureus [6] = experiment: Antibacterial activity against penicillin-resistant Staphylococcus aureus ATCC 31007 assessed as inhibition of bacterial growth measured after 20 hrs by two-fold microdilution assay
Staphylococcus aureus [7] = experiment: Antibacterial activity against clinical isolate Staphylococcus aureus C1 assessed as inhibition of bacterial growth measured after 20 hrs by two-fold microdilution assay
Streptococcus pyogenes [8] = experiment: Antibacterial activity against erythromycin-resistant Streptococcus pyogenes assessed as inhibition of bacterial growth measured after 20 hrs by two-fold microdilution assay
[9] = test system: Staphylococcus epidermidis; experiment: Antibacterial activity against penicillin-resistant Staphylococcus epidermidis assessed as inhibition of bacterial growth measured after 20 hrs by two-fold microdilution assay
Enterococcus faecalis [10] = experiment: Antibacterial activity against Vancomycin-susceptible Enterococcus faecalis ATCC 29212 assessed as inhibition of bacterial growth measured after 20 hrs by two-fold microdilution assay
Enterococcus faecium [11] = experiment: Antibacterial activity against Vancomycin-susceptible Enterococcus faecium ATCC 19434 assessed as inhibition of bacterial growth measured after 20 hrs by two-fold microdilution assay
Enterococcus faecium [12] = experiment: Antibacterial activity against Vancomycin-resistant Enterococcus faecium ATCC 51559 assessed as inhibition of bacterial growth measured after 20 hrs by two-fold microdilution assay
Enterococcus faecalis [13] = experiment: Antibacterial activity against Vancomycin-resistant Enterococcus faecalis ATCC 51299 assessed as inhibition of bacterial growth measured after 20 hrs by two-fold microdilution assay
Bacillus subtilis [14] = experiment: Bactericidal activity against penicillin-susceptible Bacillus subtilis ATCC 9372 assessed as inhibition of bacterial growth measured after 20 hrs by two-fold microdilution assay
Bacillus pumilus [15] = experiment: Bactericidal activity against penicillin-susceptible Bacillus pumilus CMCC63202 assessed as inhibition of bacterial growth measured after 20 hrs by two-fold microdilution assay
Staphylococcus aureus [16] = experiment: Bactericidal activity against erythromycin-susceptible Staphylococcus aureus ATCC 25923 assessed as inhibition of bacterial growth measured after 20 hrs by two-fold microdilution assay
Staphylococcus aureus [17] = experiment: Bactericidal activity against methicillin-resistant Staphylococcus aureus ATCC43300 assessed as inhibition of bacterial growth measured after 20 hrs by two-fold microdilution assay
Staphylococcus aureus [18] = experiment: Bactericidal activity against penicillin-resistant Staphylococcus aureus ATCC 31007 assessed as inhibition of bacterial growth measured after 20 hrs by two-fold microdilution assay
Bacillus pumilus [19] = experiment: Ratio of MBC to MIC against penicillin-susceptible Bacillus pumilus CMCC63202
Staphylococcus aureus [20] = experiment: Ratio of MBC to MIC against erythromycin-susceptible Staphylococcus aureus ATCC 25923
Staphylococcus aureus [21] = experiment: Ratio of MBC to MIC against methicilline-resistant Staphylococcus aureus ATCC43300
Enterococcus faecalis [22] = experiment: Bactericidal activity against Vancomycin-susceptible Enterococcus faecalis ATCC 29212 assessed as inhibition of bacterial growth measured after 20 hrs by two-fold microdilution assay
Enterococcus faecium [23] = experiment: Bactericidal activity against Vancomycin-susceptible Enterococcus faecium ATCC 19434 assessed as inhibition of bacterial growth measured after 20 hrs by two-fold microdilution assay
Enterococcus faecium [24] = experiment: Bactericidal activity against Vancomycin-resistant Enterococcus faecium ATCC 51559 assessed as inhibition of bacterial growth measured after 20 hrs by two-fold microdilution assay
Enterococcus faecalis [25] = experiment: Bactericidal activity against Vancomycin-resistant Enterococcus faecalis ATCC 51299 assessed as inhibition of bacterial growth measured after 20 hrs by two-fold microdilution assay
Bacillus subtilis [26] = experiment: Ratio of MBC to MIC against penicillin-susceptible Bacillus subtilis ATCC 9372
Staphylococcus aureus [27] = experiment: Ratio of MBC to MIC against penicillin-resistant Staphylococcus aureus ATCC 31007
Enterococcus faecalis [28] = experiment: Ratio of MBC to MIC against Vancomycin-susceptible Enterococcus faecalis ATCC 29212
Enterococcus faecium [29] = experiment: Ratio of MBC to MIC against Vancomycin-susceptible Enterococcus faecium ATCC 19434
Enterococcus faecalis [30] = experiment: Ratio of MBC to MIC against Vancomycin-resistant Enterococcus faecalis ATCC 51299
Enterococcus faecium [31] = experiment: Ratio of MBC to MIC against Vancomycin-resistant Enterococcus faecium ATCC 51559

C[n+]1cc2c3c(ccc2c2ccc4cc5c(cc4c21)OCO5)OCO3 [SANGUINARIUM]
MIC (Bacillus subtilis [1]): 2 µg/mL
MIC (Bacillus pumilus [2]): 4 µg/mL
MIC (Staphylococcus aureus [3]): 4 µg/mL
MIC (Streptococcus pyogenes [4]): 2 µg/mL
MIC (Escherichia coli): 32 µg/mL
MIC (Pseudomonas aeruginosa): > 64 µg/mL
MIC (Staphylococcus aureus [5]): 8 µg/mL
MIC (Staphylococcus aureus [6]): 16 µg/mL
MIC (Staphylococcus aureus [7]): 4 µg/mL
MIC (Streptococcus pyogenes [8]): 2 µg/mL
MIC [9]: 8 µg/mL
MIC (Enterococcus faecalis [10]): 16 µg/mL
MIC (Enterococcus faecium [11]): 64 µg/mL
MIC (Enterococcus faecium [12]): 32 µg/mL
MIC (Enterococcus faecalis [13]): 32 µg/mL
MBC (Bacillus subtilis [14]): > 128 µg/mL
MBC (Bacillus pumilus [15]): 32 µg/mL
MBC (Staphylococcus aureus [16]): 128 µg/mL
MBC (Staphylococcus aureus [17]): 128 µg/mL
MBC (Staphylococcus aureus [18]): > 64 µg/mL
Ratio (Bacillus pumilus [19]): 8
Ratio (Staphylococcus aureus [20]): 32
Ratio (Staphylococcus aureus [21]): 16
MBC (Enterococcus faecalis [22]): > 64 µg/mL
MBC (Enterococcus faecium [23]): > 64 µg/mL
MBC (Enterococcus faecium [24]): > 64 µg/mL
MBC (Enterococcus faecalis [25]): > 64 µg/mL

Cc1ccc2c[n+](C)c3ccc(-c4ccc5ccn(Cc6ccc(C(F)(F)F)cc6)c5c4)cc3c2c1.[Cl-]
MIC (Bacillus subtilis [1]): 8 µg/mL
MIC (Bacillus pumilus [2]): 2 µg/mL
MIC (Staphylococcus aureus [3]): 2 µg/mL
MIC (Streptococcus pyogenes [4]): 8 µg/mL
MIC (Escherichia coli): > 64 µg/mL
MIC (Pseudomonas aeruginosa): > 64 µg/mL
MIC (Staphylococcus aureus [5]): 4 µg/mL
MIC (Staphylococcus aureus [6]): 8 µg/mL
MIC (Staphylococcus aureus [7]): 2 µg/mL
MIC (Streptococcus pyogenes [8]): 8 µg/mL
MIC [9]: 2 µg/mL
MIC (Enterococcus faecalis [10]): 4 µg/mL
MIC (Enterococcus faecium [11]): 2 µg/mL
MIC (Enterococcus faecium [12]): 4 µg/mL
MIC (Enterococcus faecalis [13]): 4 µg/mL
MBC (Bacillus subtilis [14]): > 8 µg/mL
MBC (Bacillus pumilus [15]): 16 µg/mL
MBC (Staphylococcus aureus [16]): 4 µg/mL
MBC (Staphylococcus aureus [17]): 8 µg/mL
MBC (Staphylococcus aureus [18]): 16 µg/mL
Ratio (Bacillus subtilis [26]): 1
Ratio (Bacillus pumilus [19]): 8
Ratio (Staphylococcus aureus [20]): 2
Ratio (Staphylococcus aureus [27]): 4
MBC (Enterococcus faecalis [22]): 16 µg/mL
MBC (Enterococcus faecium [23]): 16 µg/mL
MBC (Enterococcus faecium [24]): 32 µg/mL
MBC (Enterococcus faecalis [25]): 32 µg/mL
Ratio (Enterococcus faecalis [28]): 4
Ratio (Enterococcus faecium [29]): 8
Ratio (Enterococcus faecalis [30]): 8

Cc1ccc2c[n+](C)c3ccc(-c4ccc5ccn(Cc6ccc(OC(F)(F)F)cc6)c5c4)cc3c2c1.[Cl-]
MIC (Bacillus subtilis [1]): 4 µg/mL
MIC (Bacillus pumilus [2]): 4 µg/mL
MIC (Staphylococcus aureus [3]): 2 µg/mL
MIC (Streptococcus pyogenes [4]): 8 µg/mL
MIC (Escherichia coli): > 64 µg/mL
MIC (Pseudomonas aeruginosa): > 64 µg/mL
MIC (Staphylococcus aureus [5]): 4 µg/mL
MIC (Staphylococcus aureus [6]): 4 µg/mL
MIC (Staphylococcus aureus [7]): 4 µg/mL
MIC (Streptococcus pyogenes [8]): 8 µg/mL
MIC [9]: 2 µg/mL
MIC (Enterococcus faecalis [10]): 4 µg/mL
MIC (Enterococcus faecium [11]): 4 µg/mL
MIC (Enterococcus faecium [12]): 4 µg/mL
MIC (Enterococcus faecalis [13]): 4 µg/mL
MBC (Bacillus subtilis [14]): 4 µg/mL
MBC (Bacillus pumilus [15]): 32 µg/mL
MBC (Staphylococcus aureus [16]): 4 µg/mL
MBC (Staphylococcus aureus [17]): 4 µg/mL
MBC (Staphylococcus aureus [18]): 4 µg/mL
Ratio (Bacillus subtilis [26]): 1
Ratio (Bacillus pumilus [19]): 8
Ratio (Staphylococcus aureus [20]): 2
Ratio (Staphylococcus aureus [21]): 1
Ratio (Staphylococcus aureus [27]): 1
MBC (Enterococcus faecalis [22]): 16 µg/mL
MBC (Enterococcus faecium [23]): 16 µg/mL
MBC (Enterococcus faecium [24]): 32 µg/mL
MBC (Enterococcus faecalis [25]): 16 µg/mL
Ratio (Enterococcus faecalis [28]): 4
Ratio (Enterococcus faecium [29]): 4
Ratio (Enterococcus faecium [31]): 8
